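Protocol summary: plate cells (96-well), add compound at 5 concentrations, incubate 48 h, interpolate endpoints linearly. TGI: concentration producing complete growth inhibition.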
Columns and labels:
Experiment in all cases: inhibition of tumour cell growth, NCI panel, 48 h
[1] = system: NCI/ADR-RES ovarian
[2] = system: OVCAR-8 ovarian
[3] = system: NCI-H23 lung
[4] = system: HT29 colon
[5] = system: OVCAR-4 ovarian
[6] = system: K-562 leukemia
[7] = system: SR leukemia
[8] = system: CCRF-CEM leukemia
[9] = system: T-47D breast
[10] = system: MDA-MB-435
[11] = system: NCI-H226 lung
[12] = system: SF-295 CNS
[13] = system: MDA-N
[14] = system: TK-10 renal
[15] = system: OVCAR-5 ovarian
[16] = system: UO-31 renal
[17] = system: OVCAR-3 ovarian
[18] = system: COLO 205 colon
[19] = system: SK-MEL-28 melanoma
[20] = system: MDA-MB-231 breast
[21] = system: A549 NSCLC
[22] = system: HCT-15 colon
[23] = system: HCC-2998 colon
[24] = system: U251 CNS
[25] = system: NCI-H522 lung
[26] = system: UACC-257 melanoma
[27] = system: MOLT-4 leukemia
[28] = system: SNB-75 CNS
[29] = system: MALME-3M melanoma
[30] = system: KM12 colon
[31] = system: SF-539 CNS
[32] = system: A498 renal
[33] = system: ACHN renal
[34] = system: SK-MEL-2 melanoma
[35] = system: HOP-62 NSCLC
[36] = system: EKVX NSCLC
[37] = system: NCI-H460 lung
[38] = system: SK-OV-3 ovarian
[39] = system: PC-3 prostate
[40] = system: SNB-19 CNS
[41] = system: IGROV1 ovarian
[42] = system: CAKI-1 renal
[43] = system: UACC-62 melanoma
[44] = system: SW-620 colon
[45] = system: HOP-92 NSCLC
[46] = system: 786-0 renal
[47] = system: LOX IMVI melanoma
[48] = system: RPMI-8226 leukemia
[49] = system: M14 melanoma
[50] = system: RXF 393 renal
[51] = system: HL-60(TB) leukemia
[52] = system: BT-549 breast
[53] = system: HCT-116 colon
[54] = system: HS 578T breast
[55] = system: SN12C renal
[56] = system: SK-MEL-5 melanoma
[57] = system: MCF7 breast
[58] = system: SF-268 CNS
[59] = system: DU-145 prostate

SMILES: CCN1CN(c2ccccc2)C2(CCN(CC(CC3OCCO3)c3ccc(F)cc3)CC2)C1=O (stereo not given)
- TGI [1]: > 92.7 µM
- TGI [2]: > 100 µM
- TGI [3]: > 57.3 µM
- TGI [4]: 5.69 µM
- TGI [5]: 36.3 µM
- TGI [6]: > 87.6 µM
- TGI [7]: > 100 µM
- TGI [8]: > 43.1 µM
- TGI [9]: 38.9 µM
- TGI [10]: 38.2 µM
- TGI [11]: 65 µM
- TGI [12]: 18.9 µM
- TGI [13]: > 26.3 µM
- TGI [14]: > 46.7 µM
- TGI [15]: 25.4 µM
- TGI [16]: > 74.8 µM
- TGI [17]: 50.7 µM
- TGI [18]: 1.95 µM
- TGI [19]: 40.5 µM
- TGI [20]: > 44.2 µM
- TGI [21]: > 100 µM
- TGI [22]: > 67.5 µM
- TGI [23]: 46.1 µM
- TGI [24]: 38.9 µM
- TGI [25]: 26.6 µM
- TGI [26]: 13.8 µM
- TGI [27]: > 67 µM
- TGI [28]: 93 µM
- TGI [29]: 43.1 µM
- TGI [30]: 17.5 µM
- TGI [31]: 25.5 µM
- TGI [32]: 9.51 µM
- TGI [33]: > 30.5 µM
- TGI [34]: 46.8 µM
- TGI [35]: 12.1 µM
- TGI [36]: > 100 µM
- TGI [37]: 33 µM
- TGI [38]: > 73.3 µM
- TGI [39]: > 100 µM
- TGI [40]: > 92 µM
- TGI [41]: > 53.8 µM
- TGI [42]: 22.5 µM
- TGI [43]: 47.1 µM
- TGI [44]: > 40.4 µM
- TGI [45]: 10.3 µM
- TGI [46]: 39 µM
- TGI [47]: 35.1 µM
- TGI [48]: 60.2 µM
- TGI [49]: 9.54 µM
- TGI [50]: 44.8 µM
- TGI [51]: 49.3 µM
- TGI [52]: 53.2 µM
- TGI [53]: 11 µM
- TGI [54]: > 64.1 µM
- TGI [55]: > 89.5 µM
- TGI [56]: 15.2 µM
- TGI [57]: 7.22 µM
- TGI [58]: 38.2 µM

SMILES: COC(=O)C12OC3CO[Si](C(C)C)(C(C)C)O[Si](C(C)C)(C(C)C)OC3C1Oc1nc(=O)ccn12 (stereo not given)
- TGI [1]: 29.2 µM
- TGI [2]: 29 µM
- TGI [3]: 29 µM
- TGI [4]: 29.3 µM
- TGI [5]: 30.8 µM
- TGI [6]: 30.6 µM
- TGI [7]: 32 µM
- TGI [8]: 41 µM
- TGI [9]: 33 µM
- TGI [10]: 31.3 µM
- TGI [11]: 30.4 µM
- TGI [12]: 29.6 µM
- TGI [13]: 32.7 µM
- TGI [14]: 30.9 µM
- TGI [15]: 28.6 µM
- TGI [16]: 29.9 µM
- TGI [17]: 29.3 µM
- TGI [18]: 32.9 µM
- TGI [19]: 30.4 µM
- TGI [20]: 29.5 µM
- TGI [21]: 28.6 µM
- TGI [22]: 30.1 µM
- TGI [24]: 29.6 µM
- TGI [26]: 29.1 µM
- TGI [27]: 30.8 µM
- TGI [29]: 28.1 µM
- TGI [30]: 29.2 µM
- TGI [31]: 30.2 µM
- TGI [32]: 38.8 µM
- TGI [33]: 32.2 µM
- TGI [34]: 31.6 µM
- TGI [35]: 32.2 µM
- TGI [36]: 30.7 µM
- TGI [38]: 31.1 µM
- TGI [39]: 29.2 µM
- TGI [40]: 31.2 µM
- TGI [41]: 24 µM
- TGI [42]: 31.7 µM
- TGI [43]: 27.4 µM
- TGI [44]: 30 µM
- TGI [45]: 27.7 µM
- TGI [46]: 31.6 µM
- TGI [59]: 32.5 µM
- TGI [47]: 31.6 µM
- TGI [48]: 30.8 µM
- TGI [49]: 32.3 µM
- TGI [50]: 30.6 µM
- TGI [51]: 72.9 µM
- TGI [52]: 32.1 µM
- TGI [53]: 29.6 µM
- TGI [54]: 7.3 µM
- TGI [55]: 32 µM
- TGI [56]: 29.7 µM
- TGI [57]: 29.4 µM
- TGI [58]: 24.6 µM

SMILES: Fc1ccc(C(OCCN2CC3CCC(C2)N3CCCc2ccccc2)c2ccc(F)cc2)cc1
- TGI [1]: 15.2 µM
- TGI [2]: 5.39 µM
- TGI [3]: 15.3 µM
- TGI [4]: 13.7 µM
- TGI [5]: 16.4 µM
- TGI [6]: 4.99 µM
- TGI [8]: 15.6 µM
- TGI [9]: 6.28 µM
- TGI [10]: 4.68 µM
- TGI [11]: 13.1 µM
- TGI [12]: 11.8 µM
- TGI [13]: 11.8 µM
- TGI [14]: 24 µM
- TGI [15]: 23.3 µM
- TGI [16]: 19.4 µM
- TGI [17]: 21.8 µM
- TGI [18]: 2.74 µM
- TGI [19]: 22.2 µM
- TGI [20]: 10.2 µM
- TGI [21]: 21.5 µM
- TGI [22]: 12.2 µM
- TGI [23]: 8.06 µM
- TGI [24]: 16.1 µM
- TGI [25]: 5.15 µM
- TGI [26]: 11.9 µM
- TGI [27]: 9.01 µM
- TGI [28]: 17 µM
- TGI [29]: 11.2 µM
- TGI [30]: 12.2 µM
- TGI [31]: 3.63 µM
- TGI [32]: 17.7 µM
- TGI [33]: 22.4 µM
- TGI [34]: 12 µM
- TGI [35]: 21.3 µM
- TGI [36]: 16.4 µM
- TGI [37]: 9.75 µM
- TGI [38]: 23.3 µM
- TGI [39]: 10.4 µM
- TGI [40]: 22.1 µM
- TGI [41]: 21.1 µM
- TGI [42]: 19.1 µM
- TGI [43]: 21.3 µM
- TGI [44]: 17.3 µM
- TGI [45]: 21.1 µM
- TGI [46]: 13.4 µM
- TGI [59]: 22.6 µM
- TGI [47]: 13 µM
- TGI [48]: 4.8 µM
- TGI [49]: 6.26 µM
- TGI [51]: 14.1 µM
- TGI [52]: 24.8 µM
- TGI [53]: 11.3 µM
- TGI [54]: 13.6 µM
- TGI [55]: 13.6 µM
- TGI [56]: 3.4 µM
- TGI [57]: 10.7 µM
- TGI [58]: 15.1 µM

SMILES: CCOC(=O)c1cccc(NC(=O)CI)c1
- TGI [1]: 1.96 µM
- TGI [2]: 0.687 µM
- TGI [3]: 0.521 µM
- TGI [4]: 0.646 µM
- TGI [5]: 3.02 µM
- TGI [7]: 0.0918 µM
- TGI [10]: 0.797 µM
- TGI [12]: 5.69 µM
- TGI [13]: 0.472 µM
- TGI [14]: 2.19 µM
- TGI [15]: 3.07 µM
- TGI [16]: 0.43 µM
- TGI [17]: 0.759 µM
- TGI [18]: 1.86 µM
- TGI [19]: 5.86 µM
- TGI [20]: 2.91 µM
- TGI [21]: 3.41 µM
- TGI [23]: 4.34 µM
- TGI [24]: 1.35 µM
- TGI [25]: 0.347 µM
- TGI [26]: 2.95 µM
- TGI [27]: 0.221 µM
- TGI [28]: 2.87 µM
- TGI [29]: 2.98 µM
- TGI [30]: 3.66 µM
- TGI [31]: 1.31 µM
- TGI [32]: 4.72 µM
- TGI [33]: 1.99 µM
- TGI [34]: 2.4 µM
- TGI [35]: 2.44 µM
- TGI [36]: 3.94 µM
- TGI [37]: 3.77 µM
- TGI [38]: 2.26 µM
- TGI [39]: 2.39 µM
- TGI [40]: 9.39 µM
- TGI [41]: 1.02 µM
- TGI [42]: 1.07 µM
- TGI [43]: 1.87 µM
- TGI [44]: 1.64 µM
- TGI [45]: 3.57 µM
- TGI [46]: 0.307 µM
- TGI [59]: 3.34 µM
- TGI [48]: 3.28 µM
- TGI [49]: 0.664 µM
- TGI [50]: 2.74 µM
- TGI [52]: 1.48 µM
- TGI [53]: 0.946 µM
- TGI [55]: 0.731 µM
- TGI [56]: 1.22 µM
- TGI [57]: 1.33 µM
